Test results from patent US20020051978A1, “Methods and compositions for the identification, assessment, prevention and therapy of human cancers” (priority 2000, published 2002).
Read-outs that look alike come from different tables or passages of the source.

Experiments:
[1] = test system: 60 cancer cell lines (NCI 60 cancer cell line series); conditions: cited from earlier work
[2] = test system: 60 cancer cell lines (NCI 60 cancer cell line series); test: NCI-DTP in vitro cancer screen, sulforhodamine B (SRB) growth inhibition, 48 hour exposure; assay type: cell-based, human; parameters: key to sensitivity class Ovarian OVCAR-8 CL6005 / sensitivity class Ovarian SK-OV-3 CL6011 / sensitivity class Prostate DU-145 CL11003 / sensitivity class NSCLC NCI-H522 CL1003 / sensitivity class Ovarian IGROV1 CL6010 / sensitivity class Ovarian OVCAR-4 CL6002 / sensitivity class Prostate PC-3(I) CL11001 / sensitivity class Renal A498 CL9013 / sensitivity class Renal SN12C CL9008: sensitivity class: 1 = Low, 2 = Medium, 3 = High
How it was run: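 Values come from the NCI-DTP screen database: -log GI50, the concentration giving 50% growth inhibition, derived from SRB cell-mass dose-response curves. Each line seeded at its own density, treated day 1 at five ten-fold-spaced doses in duplicate wells, stained after 48 h.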

O=c1[nH]cc(F)c(=O)[nH]1 [5-Fluorouracil]
-Log (GI50) ([1]; Breast BT-549 (CL5013)): 4.0 | -Log (GI50) ([1]; Breast HS-578T CL5006): 3.7 | -Log (GI50) ([1]; Breast MCF7(I) (CL5001)): 5.7 | -Log (GI50) ([1]; Breast MCF7/ADRr (CL5002)): 4.4 | -Log (GI50) ([1]; Breast MDA-MB-231 CL5005): 3.4 | -Log (GI50) ([1]; Breast MDA-MB-435 (CL5011)): 4.9 | -Log (GI50) ([1]; Breast MDA-N CL5012): 5.0 | -Log (GI50) ([1]; Breast T-47D (CL5014)): 4.2 | -Log (GI50) ([1]; CNS SF-268 CL12014): 4.3 | -Log (GI50) ([1]; CNS SF-295 CL12015): 4.3 | -Log (GI50) ([1]; CNS SF-539 CL12016): 6.1 | -Log (GI50) ([1]; CNS SNB-19 (CL12002)): 3.9 | -Log (GI50) ([1]; CNS SNB-75(I) CL12005): 3.8 | -Log (GI50) ([1]; CNS U251(I) CL12009): 4.3 | -Log (GI50) ([1]; Colon COLO-250 CL4010): 5.2 | -Log (GI50) ([1]; Colon HCC-2998 (CL4002)): 5.9 | -Log (GI50) ([1]; Colon HCT-15 CL4015): 5.2 | -Log (GI50) ([1]; Colon HCT-116 (CL4003)): 5.4 | -Log (GI50) ([1]; Colon HT29(I) CL4001): 5.2 | -Log (GI50) ([1]; Colon KM12 (CL4017)): 4.9 | -Log (GI50) ([1]; Colon SW-620 (CL4009)): 4.6 | -Log (GI50) ([1]; Leukemia CCRF-CEM(I) (CL7003)): 4.5 | -Log (GI50) ([1]; Leukemia HL-60(I) (CL7008)): 4.9 | -Log (GI50) ([1]; Leukemia K562(I) CL7005): 4.8 | -Log (GI50) ([1]; Leukemia MOLT-4 (CL7006)): 4.9 | -Log (GI50) ([1]; Leukemia RPMI-8226(I) (CL7010)): 5.3 | -Log (GI50) ([1]; Leukemia SR CL7019): 5.2 | -Log (GI50) ([1]; Melanoma LOX IMVI CL10001): 5.2 | -Log (GI50) ([1]; Melanoma M14 (CL10014)): 4.3 | -Log (GI50) ([1]; Melanoma MALME-3M CL10002): 4.6 | -Log (GI50) ([1]; NCSLC NCI-H522 CL1003): 4.4 | -Log (GI50) ([1]; NSCLC NCI-H23(I) CL1001): 5.0 | -Log (GI50) ([1]; NSCLC NCI-H332M CL1017): 4.4 | -Log (GI50) ([1]; NSCLC NCI-H460 CL1021): 5.9 | -Log (GI50) ([1]; Ovarian IGROV1 CL6010): 4.8 | -Log (GI50) ([1]; Ovarian OVCAR-3 CL6001): 4.4 | -Log (GI50) ([1]; Ovarian OVCAR-4 CL6002): 4.1 | -Log (GI50) ([1]; Ovarian OVCAR-5 CL6003): 3.8 | -Log (GI50) ([1]; Ovarian OVCAR-8 CL6005): 4.8 | -Log (GI50) ([1]; Ovarian SK-OV-3 CL6011): 3.8 | -Log (GI50) ([1]; Prostate DU-145 CL11003): 5.1 | -Log (GI50) ([1]; Prostate PC-3(I) CL11001): 4.3 | -Log (GI50) ([1]; Renal 786-O CL9018): 4.9 | -Log (GI50) ([1]; Renal A498 CL9013): 5.0 | -Log (GI50) ([1]; Renal ACHN CL9023): 5.0 | -Log (GI50) ([1]; Renal CAKI-1 CL9015): 5.3 | -Log (GI50) ([1]; Renal RXF-393 CL9016): 4.2 | -Log (GI50) ([1]; Renal SN12C CL9008): 4.5 | -Log (GI50) ([1]; Renal TK10 CL9024): 3.6 | -Log (GI50) ([1]; Renal UO-31 CL9004): 5.2 | classification of cell line as Low(1), Medium(2) or High(3) sensitivity to compound ([2]; Breast BT-549 (CL5013)): 1 | classification of cell line as Low(1), Medium(2) or High(3) sensitivity to compound ([2]; Breast HS-578T CL5006): 1 | classification of cell line as Low(1), Medium(2) or High(3) sensitivity to compound ([2]; Breast MCF7(I) (CL5001)): 3 | classification of cell line as Low(1), Medium(2) or High(3) sensitivity to compound ([2]; Breast MCF7/ADRr (CL5002)): 2 | classification of cell line as Low(1), Medium(2) or High(3) sensitivity to compound ([2]; Breast MDA-MB-231 CL5005): 1 | classification of cell line as Low(1), Medium(2) or High(3) sensitivity to compound ([2]; Breast MDA-MB-435 (CL5011)): 2 | classification of cell line as Low(1), Medium(2) or High(3) sensitivity to compound ([2]; Breast MDA-N CL5012): 2 | classification of cell line as Low(1), Medium(2) or High(3) sensitivity to compound ([2]; Breast T-47D (CL5014)): 2 | classification of cell line as Low(1), Medium(2) or High(3) sensitivity to compound ([2]; CNS SF-268 CL12014): 2 | classification of cell line as Low(1), Medium(2) or High(3) sensitivity to compound ([2]; CNS SF-295 CL12015): 2 | classification of cell line as Low(1), Medium(2) or High(3) sensitivity to compound ([2]; CNS SF-539 CL12016): 3 | classification of cell line as Low(1), Medium(2) or High(3) sensitivity to compound ([2]; CNS SNB-19 (CL12002)): 1 | classification of cell line as Low(1), Medium(2) or High(3) sensitivity to compound ([2]; CNS SNB-75(I) CL12005): 1 | classification of cell line as Low(1), Medium(2) or High(3) sensitivity to compound ([2]; CNS U251(I) CL12009): 2 | classification of cell line as Low(1), Medium(2) or High(3) sensitivity to compound ([2]; Colon COLO-250 CL4010): 2 | classification of cell line as Low(1), Medium(2) or High(3) sensitivity to compound ([2]; Colon HCC-2998 (CL4002)): 3 | classification of cell line as Low(1), Medium(2) or High(3) sensitivity to compound ([2]; Colon HCT-15 CL4015): 2 | classification of cell line as Low(1), Medium(2) or High(3) sensitivity to compound ([2]; Colon HCT-116 (CL4003)): 3 | classification of cell line as Low(1), Medium(2) or High(3) sensitivity to compound ([2]; Colon HT29(I) CL4001): 2 | classification of cell line as Low(1), Medium(2) or High(3) sensitivity to compound ([2]; Colon KM12 (CL4017)): 2 | classification of cell line as Low(1), Medium(2) or High(3) sensitivity to compound ([2]; Colon SW-620 (CL4009)): 2 | classification of cell line as Low(1), Medium(2) or High(3) sensitivity to compound ([2]; Leukemia CCRF-CEM(I) (CL7003)): 2 | classification of cell line as Low(1), Medium(2) or High(3) sensitivity to compound ([2]; Leukemia HL-60(I) (CL7008)): 2 | classification of cell line as Low(1), Medium(2) or High(3) sensitivity to compound ([2]; Leukemia K562(I) CL7005): 2 | classification of cell line as Low(1), Medium(2) or High(3) sensitivity to compound ([2]; Leukemia MOLT-4 (CL7006)): 2 | classification of cell line as Low(1), Medium(2) or High(3) sensitivity to compound ([2]; Leukemia RPMI-8226(I) (CL7010)): 3 | classification of cell line as Low(1), Medium(2) or High(3) sensitivity to compound ([2]; Leukemia SR CL7019): 2 | classification of cell line as Low(1), Medium(2) or High(3) sensitivity to compound ([2]; Melanoma LOX IMVI CL10001): 2 | classification of cell line as Low(1), Medium(2) or High(3) sensitivity to compound ([2]; Melanoma M14 (CL10014)): 2 | classification of cell line as Low(1), Medium(2) or High(3) sensitivity to compound ([2]; Melanoma MALME-3M CL10002): 2 | sensitivity class NSCLC NCI-H23(I) CL1001 ([2]; cell line NSCLC NCI-H23(I), CL1001): 2 | sensitivity class NSCLC NCI-H332M CL1017 ([2]; cell line NSCLC NCI-H332M, CL1017): 2 | sensitivity class NSCLC NCI-H460 CL1021 ([2]; cell line NSCLC NCI-H460, CL1021): 3 | sensitivity class NSCLC NCI-H522 CL1003 ([2]; cell line NSCLC NCI-H522, CL1003): 2 | sensitivity class Ovarian IGROV1 CL6010 ([2]; cell line Ovarian IGROV1, CL6010): 2 | sensitivity class Ovarian OVCAR-3 CL6001 ([2]; cell line Ovarian OVCAR-3, CL6001): 2 | sensitivity class Ovarian OVCAR-4 CL6002 ([2]; cell line Ovarian OVCAR-4, CL6002): 2 | sensitivity class Ovarian OVCAR-5 CL6003 ([2]; cell line Ovarian OVCAR-5, CL6003): 1 | sensitivity class Ovarian OVCAR-8 CL6005 ([2]; cell line Ovarian OVCAR-8, CL6005): 2 | sensitivity class Ovarian SK-OV-3 CL6011 ([2]; cell line Ovarian SK-OV-3, CL6011): 1 | sensitivity class Prostate DU-145 CL11003 ([2]; cell line Prostate DU-145, CL11003): 2 | sensitivity class Prostate PC-3(I) CL11001 ([2]; cell line Prostate PC-3(I), CL11001): 2 | sensitivity class Renal 786-O CL9018 ([2]; cell line Renal 786-O, CL9018): 2 | sensitivity class Renal A498 CL9013 ([2]; cell line Renal A498, CL9013): 2 | sensitivity class Renal ACHN CL9023 ([2]; cell line Renal ACHN, CL9023): 2 | sensitivity class Renal CAKI-1 CL9015 ([2]; cell line Renal CAKI-1, CL9015): 3 | sensitivity class Renal RXF-393 CL9016 ([2]; cell line Renal RXF-393, CL9016): 2 | sensitivity class Renal SN12C CL9008 ([2]; cell line Renal SN12C, CL9008): 2 | sensitivity class Renal TK10 CL9024 ([2]; cell line Renal TK10, CL9024): 1 | sensitivity class Renal UO-31 CL9004 ([2]; cell line Renal UO-31, CL9004): 2
